Where a SMILES comes first, the peptide text is derived from it. [ ]: non-standard residue; d: D form. Nle = CCCC[C@H](N)C(=O)O
Biological target: T1, Solute carrier family 15 member 2 (Homo sapiens, UniProt Q16348)
T1 sequence (Q16348 whole entry): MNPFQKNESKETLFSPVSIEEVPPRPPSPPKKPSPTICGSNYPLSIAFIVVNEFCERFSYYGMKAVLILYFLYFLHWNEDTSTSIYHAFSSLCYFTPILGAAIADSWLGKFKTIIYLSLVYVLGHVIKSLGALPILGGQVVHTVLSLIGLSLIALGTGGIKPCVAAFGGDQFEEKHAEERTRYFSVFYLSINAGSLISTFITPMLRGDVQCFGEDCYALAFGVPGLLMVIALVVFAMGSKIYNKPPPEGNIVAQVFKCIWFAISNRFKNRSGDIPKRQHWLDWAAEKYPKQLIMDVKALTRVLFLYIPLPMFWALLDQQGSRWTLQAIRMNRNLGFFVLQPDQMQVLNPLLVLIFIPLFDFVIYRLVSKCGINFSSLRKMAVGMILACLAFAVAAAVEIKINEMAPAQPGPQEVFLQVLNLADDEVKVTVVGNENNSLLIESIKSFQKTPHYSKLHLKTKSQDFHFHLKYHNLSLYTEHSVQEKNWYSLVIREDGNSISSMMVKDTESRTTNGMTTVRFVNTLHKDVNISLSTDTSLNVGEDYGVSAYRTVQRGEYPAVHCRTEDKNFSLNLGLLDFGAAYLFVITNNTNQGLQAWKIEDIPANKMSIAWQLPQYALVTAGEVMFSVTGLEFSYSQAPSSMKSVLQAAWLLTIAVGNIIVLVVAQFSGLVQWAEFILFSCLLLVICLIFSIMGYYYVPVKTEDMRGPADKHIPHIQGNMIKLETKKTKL
Assay: Binding affinity to human PepT2 in SKTP cells
Type: ADME, cell-based

Question: Which Ki does the source give for CC(C)C[C@H](N)C(=O)N1CCC[C@H]1C(=O)O (H-Leu-Pro-OH) here?
Answer: The Ki was 10 µM.

Question: CC1=C(C(=O)O)N2C(=O)[C@@H](NC(=O)[C@H](N)c3ccc(O)cc3)[C@H]2SC1 [CEFADROXIL] was tested. Which Ki did it give?
Answer: The Ki was 3 µM.

Question: Which Ki does the source give for N[C@@H](Cc1ccc(O)cc1)C(=O)N[C@@H](Cc1ccccc1)C(=O)O (H-Tyr-Phe-OH) here?
Answer: The Ki was 9 µM.

Question: With CO/N=C(\C(=O)N[C@@H]1C(=O)N2C(C(=O)O)=C(CSc3nc(C)c(CC(=O)O)s3)CS[C@H]12)c1csc(N)n1 [CEFODIZIME] as the molecule, how does the Ki read?
Answer: The Ki was 9000 µM.

Question: Which Ki does the source give for C[C@H](NC(=O)CN)C(=O)O (H-Gly-Ala-OH) here?
Answer: The Ki was 3.5 µM.

Question: How did the Ki turn out when C[C@H](N)C(=O)N[C@@H](C)C(=O)N[C@@H](CC(=O)O)C(=O)O (H-Ala-Ala-Asp-OH) was run?
Answer: The Ki was 160 µM.

Question: Which Ki does the source give for CC(C)[C@H](N)C(=O)N[C@@H](Cc1ccc(O)cc1)C(=O)O (H-Val-Tyr-OH) here?
Answer: The Ki was 2.5 µM.

Question: Which Ki does the source give for CO/N=C(\C(=O)N[C@@H]1C(=O)N2C(C(=O)O)=C(COC(N)=O)CS[C@H]12)c1ccco1 [CEFUROXIME] here?
Answer: The Ki was 12600 µM.

Question: With NCC(=O)N[C@@H](Cc1c[nH]cn1)C(=O)O (H-Gly-His-OH) as the molecule, how does the Ki read?
Answer: Its Ki is 39 µM.

Question: With CC1(C)S[C@@H]2[C@H](NC(=O)C3(N)CCCCC3)C(=O)N2[C@H]1C(=O)O [CYCLACILLIN] as the molecule, how does the Ki read?
Answer: Its Ki is 44 µM.

Question: With Cc1onc(-c2ccccc2)c1C(=O)N[C@@H]1C(=O)N2[C@@H]1SC(C)(C)[C@@H]2C(=O)O [OXACILLIN] as the molecule, how does the Ki read?
Answer: The Ki was 3300 µM.

Question: For COCC1=C(C(=O)O)N2C(=O)[C@@H](NC(=O)/C(=N\OC)c3csc(N)n3)[C@H]2SC1 [CEFPODOXIME], which Ki is on record?
Answer: The Ki was 31000 µM.

Question: Which Ki does the source give for CC(C)C[C@H](N)C(=O)NCC(=O)NCC(=O)O (H-Leu-Gly-Gly-OH) here?
Answer: Its Ki is 18 µM.

Question: With CC[C@H](C)[C@H](N)C(=O)N[C@@H](Cc1ccc(O)cc1)C(=O)O (H-Ile-Tyr-OH) as the molecule, how does the Ki read?
Answer: The Ki was 8 µM.

Question: With N[C@@H](Cc1c[nH]c2ccccc12)C(=O)NCC(=O)N[C@@H](Cc1ccc(O)cc1)C(=O)O as the molecule, how does the Ki read?
Answer: The Ki was 1.7 µM.

Question: How did the Ki turn out when Cc1onc(-c2ccccc2Cl)c1C(=O)N[C@@H]1C(=O)N2[C@@H]1SC(C)(C)[C@@H]2C(=O)O [CLOXACILLIN] was run?
Answer: Its Ki is 950 µM.

Question: Which Ki does the source give for O=C(Cc1cccs1)N[C@@H]1C(=O)N2C(C(=O)[O-])=C(C[n+]3ccccc3)CS[C@H]12 [CEPHALORIDINE] here?
Answer: Its Ki is 8500 µM.

Question: With C[C@H](NC(=O)[C@@H](N)CCCCN)C(=O)O (H-Lys-Ala-OH) as the molecule, how does the Ki read?
Answer: The Ki was 41 µM.

Question: How did the Ki turn out when CC(C)[C@H](N)C(=O)N1CCC[C@H]1C(=O)O (H-Val-Pro-OH) was run?
Answer: Its Ki is 39 µM.

Question: For NCCCC[C@H](NC(=O)[C@H](Cc1ccccc1)NC(=O)[C@@H]1CCCN1)C(=O)O (H-Pro-Phe-Lys-OH), which Ki is on record?
Answer: Its Ki is 900 µM.

Question: Which Ki does the source give for H-AATAA-OH here?
Answer: The Ki was 190 µM.

Question: C[C@H](NC(=O)[C@@H](C)N)C(=O)O (H-[dA]-Ala-OH) was tested. Which Ki did it give?
Answer: The Ki was 130 µM.

Question: How did the Ki turn out when N[C@@H](Cc1ccccc1)C(=O)NCC(=O)O (H-Phe-Gly-OH) was run?
Answer: Its Ki is 14 µM.

Question: For N[C@@H](Cc1c[nH]c2ccccc12)C(=O)N[C@@H](Cc1c[nH]c2ccccc12)C(=O)N[C@@H](Cc1c[nH]c2ccccc12)C(=O)O (H-Trp-Trp-Trp-OH), which Ki is on record?
Answer: Its Ki is 0.3 µM.

Question: How did the Ki turn out when C[C@H](N)C(=O)N[C@@H](C)C(=O)N[C@@H](C)C(=O)O was run?
Answer: Its Ki is 18 µM.

Question: With C[C@H](N)C(=O)NCC(=O)O (H-Ala-Gly-OH) as the molecule, how does the Ki read?
Answer: The Ki was 7 µM.

Question: How did the Ki turn out when C[C@H](N)C(=O)N[C@@H](CO)C(=O)O (H-Ala-Ser-OH) was run?
Answer: Its Ki is 6 µM.

Question: Which Ki does the source give for NCC(=O)NCC(=O)O (H-Gly-Gly-OH) here?
Answer: The Ki was 54 µM.

Question: CC(=O)OCC1=C(C(=O)O)N2C(=O)[C@@H](NC(=O)CSc3ccncc3)[C@H]2SC1 [CEPHAPIRIN SODIUM] was tested. Which Ki did it give?
Answer: The Ki was 11100 µM.

Question: CO/N=C(\C(=O)N[C@@H]1C(=O)N2C(C(=O)[O-])=C(C[N+]3(C)CCCC3)CS[C@H]12)c1csc(N)n1 was tested. Which Ki did it give?
Answer: Its Ki is 11000 µM.

Question: With C[C@H](NC(=O)[C@@H](N)Cc1ccc(O)cc1)C(=O)O as the molecule, how does the Ki read?
Answer: Its Ki is 4.4 µM.

Question: Which Ki does the source give for C=N[C@@H](C(=O)N[C@@H]1C(=O)N2[C@@H]1SC(C)(C)[C@@H]2C(=O)O)c1ccccc1 [METAMPICILLIN] here?
Answer: Its Ki is 730 µM.

Question: With C[C@H](NC(=O)[C@@H](N)CO)C(=O)O (H-Ser-Ala-OH) as the molecule, how does the Ki read?
Answer: The Ki was 7 µM.

Question: Which Ki does the source give for CSCC[C@H](NC(=O)[C@@H](N)CCSC)C(=O)O (H-Met-Met-OH) here?
Answer: Its Ki is 3 µM.

Question: Cc1onc(-c2c(Cl)cccc2Cl)c1C(=O)N[C@@H]1C(=O)N2[C@@H]1SC(C)(C)[C@@H]2C(=O)O [DICLOXACILLIN] was tested. Which Ki did it give?
Answer: The Ki was 420 µM.

Question: How did the Ki turn out when Cn1nnnc1SCC1=C(C(=O)O)N2C(=O)[C@@H](NC(=O)[C@H](O)c3ccccc3)[C@H]2SC1 [CEFAMANDOLE] was run?
Answer: The Ki was 2800 µM.

Question: Which Ki does the source give for N[C@@H](Cc1c[nH]c2ccccc12)C(=O)N[C@@H](Cc1c[nH]c2ccccc12)C(=O)O (H-Trp-Trp-OH) here?
Answer: Its Ki is 0.8 µM.

Question: For CC1=C(C(=O)O)N2C(=O)[C@@H](NC(=O)[C@H](N)c3ccccc3)[C@H]2SC1 [CEPHALEXIN ANHYDROUS], which Ki is on record?
Answer: Its Ki is 75 µM.

Question: For N[C@@H](CC(=O)O)C(=O)N[C@@H](CC(=O)O)C(=O)O (H-Asp-Asp-OH), which Ki is on record?
Answer: Its Ki is 150 µM.

Question: For CC(=O)CCC(=O)O [LEVULINIC ACID], which Ki is on record?
Answer: The Ki was 230 µM.

Question: Which Ki does the source give for N[C@@H](CS)C(=O)NCC(=O)O here?
Answer: The Ki was 29 µM.

Question: How did the Ki turn out when O=C(O)C[C@H](NC(=O)[C@@H]1CCCN1)C(=O)O (H-Pro-Asp-OH) was run?
Answer: The Ki was 2100 µM.

Question: How did the Ki turn out when N[C@@H](Cc1ccccc1)C(=O)N[C@@H](Cc1ccccc1)C(=O)O (H-Phe-Phe-OH) was run?
Answer: The Ki was 37 µM.

Question: With H-FATAA-OH as the molecule, how does the Ki read?
Answer: Its Ki is 240 µM.

Question: C[C@H](N)C(=O)N[C@H](C)C(=O)O (H-Ala-[dA]-OH) was tested. Which Ki did it give?
Answer: Its Ki is 270 µM.

Question: CO[C@@]1(NC(=O)CSCC#N)C(=O)N2C(C(=O)O)=C(CSc3nnnn3C)CS[C@@H]21 [CEFMETAZOLE] was tested. Which Ki did it give?
Answer: The Ki was 4300 µM.

Question: How did the Ki turn out when CC1(C)S[C@@H]2[C@H](NC(=O)[C@H](N)c3ccc(O)cc3)C(=O)N2[C@H]1C(=O)O [AMOXICILLIN] was run?
Answer: The Ki was 430 µM.

Question: For CC[C@H](C)[C@H](N)C(=O)N[C@H](C(=O)N[C@@H](Cc1ccc(O)cc1)C(=O)O)C(C)C (H-Ile-Val-Tyr-OH), which Ki is on record?
Answer: The Ki was 14 µM.

Question: Which Ki does the source give for CO/N=C(\C(=O)N[C@@H]1C(=O)N2C(C(=O)O)=C(COC(C)=O)CS[C@H]12)c1csc(N)n1 [CEFOTAXIME] here?
Answer: Its Ki is 20000 µM.

Question: Which Ki does the source give for C[C@H](N)C(=O)N1CCC[C@H]1C(=O)O (H-Ala-Pro-OH) here?
Answer: Its Ki is 12 µM.

Question: With O=C(O)CC[C@H](NC(=O)[C@@H]1CCCN1)C(=O)O (H-Pro-Glu-OH) as the molecule, how does the Ki read?
Answer: The Ki was 2600 µM.

Question: For C[C@H](NC(=O)[C@@H](N)Cc1c[nH]c2ccccc12)C(=O)O (H-Trp-Ala-OH), which Ki is on record?
Answer: Its Ki is 4 µM.

Question: With CCCC[C@H](NC(=O)[C@H](C)N)C(=O)O (H-Ala-[Nle]-OH) as the molecule, how does the Ki read?
Answer: The Ki was 31 µM.

Question: CC(=O)OCC1=C(C(=O)O)N2C(=O)[C@@H](NC(=O)Cc3cccs3)[C@H]2SC1 [CEPHALOTHIN] was tested. Which Ki did it give?
Answer: Its Ki is 8300 µM.

Question: Which Ki does the source give for C[C@H](N)C(=O)N[C@@H](CCCCN)C(=O)O (H-Ala-Lys-OH) here?
Answer: The Ki was 23 µM.

Question: How did the Ki turn out when NCCCC[C@H](NC(=O)[C@H](Cc1cnc[nH]1)NC(=O)CN)C(=O)O (H-Gly-His-Lys-OH) was run?
Answer: Its Ki is 3100 µM.

Question: For C=CC1=C(C(=O)O)N2C(=O)[C@@H](NC(=O)/C(=N\OCC(=O)O)c3csc(N)n3)[C@H]2SC1 [CEFIXIME], which Ki is on record?
Answer: Its Ki is 2600 µM.

Question: Which Ki does the source give for C[C@H](N)C(=O)N[C@H](C(=O)N[C@@H](C)C(=O)N[C@@H](C)C(=O)O)[C@@H](C)O (H-ATAA-OH) here?
Answer: Its Ki is 550 µM.

Question: For CC(=O)N[C@@H](CCCCN)C(=O)N[C@@H](C)C(=O)O (Ac-Lys-Ala-OH), which Ki is on record?
Answer: Its Ki is 16 µM.
